Here are results for three compounds from patent publication US11439639B2, “Pyrazine-containing compound” (CalciMedica, Inc., priority 2015, dated 2022).

In data set [1] the test system is Mouse Pancreatic Acinar Cells (PACs). As to the kind of experiment: TLCS-induced necrosis in mouse pancreatic acinar cells (propidium iodide uptake). It counts as cell-based. The protocol: Mouse Pancreatic Acinar Cells (PACs) were extracted and incubated with either a carrier (control) or with natural bile acid TLCS (taurolithocholic acid 3-sulfate) in the absence or presence of GSK-7975A. Cells were contacted with propidium iodide to assay for cell necrosis. TLCS treatment to individual cells in vitro mimics the effect of a gall stone or other blockage in pancreatic secretion in vivo.
Mouse PACs were treated with either DMSO, DMSO plus 500 μM TLCS, or DMSO plus 500 μM TLCS plus 1 μM of the CRAC inhibitor Compound I. Cell necrosis was measured as % PI uptake. The CRAC inhibitor Compound I inhibits TLCS-induced necrosis in mouse PACs.

For the next data set, the target named is Orai1/STIM1 channels (Homo sapiens, UniProt Q96D31). As to the kind of experiment: CRAC channel inhibition, Orai1/STIM1. It counts as cell-based. The settings on record: for IC50: Orai1/STIM1 channels. The protocol: (§1) Compound I and GSK-7975A were assayed for their inhibitory effect on CRAC channels. Channels comprising Orai1/STIM1 and Orai2/STIM1 were assayed.
Chain of Orai1/STIM1 channels (Q96D31 whole entry): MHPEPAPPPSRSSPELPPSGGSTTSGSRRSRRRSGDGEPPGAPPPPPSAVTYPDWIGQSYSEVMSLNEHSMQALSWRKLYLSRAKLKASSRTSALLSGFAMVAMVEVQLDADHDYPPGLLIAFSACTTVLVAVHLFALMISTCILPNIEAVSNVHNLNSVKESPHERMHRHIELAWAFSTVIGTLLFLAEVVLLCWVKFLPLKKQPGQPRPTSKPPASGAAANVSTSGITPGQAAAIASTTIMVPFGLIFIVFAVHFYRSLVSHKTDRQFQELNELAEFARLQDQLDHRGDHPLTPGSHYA
Chain of Orai1/STIM1 channels (Q13586 23-685 partner): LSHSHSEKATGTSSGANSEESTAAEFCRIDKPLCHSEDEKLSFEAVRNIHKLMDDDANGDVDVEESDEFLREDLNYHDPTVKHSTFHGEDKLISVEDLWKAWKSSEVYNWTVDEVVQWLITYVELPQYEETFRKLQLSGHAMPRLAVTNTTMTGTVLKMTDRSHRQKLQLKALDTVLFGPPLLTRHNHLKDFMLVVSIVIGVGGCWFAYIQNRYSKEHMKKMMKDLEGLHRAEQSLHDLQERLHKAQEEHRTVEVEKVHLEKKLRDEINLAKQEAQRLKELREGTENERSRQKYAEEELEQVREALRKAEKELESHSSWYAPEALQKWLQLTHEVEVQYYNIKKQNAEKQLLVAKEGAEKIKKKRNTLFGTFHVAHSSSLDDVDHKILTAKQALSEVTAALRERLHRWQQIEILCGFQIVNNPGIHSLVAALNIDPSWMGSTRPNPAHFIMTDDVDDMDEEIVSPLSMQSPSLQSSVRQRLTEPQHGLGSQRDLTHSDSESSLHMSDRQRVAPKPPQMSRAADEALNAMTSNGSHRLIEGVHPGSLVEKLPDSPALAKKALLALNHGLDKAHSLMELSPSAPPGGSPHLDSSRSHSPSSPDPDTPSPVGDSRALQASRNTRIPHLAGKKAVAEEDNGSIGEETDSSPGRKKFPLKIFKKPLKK

The target in another data set is Orai2/STIM1 channels (Homo sapiens, UniProt Q96SN7). Description: CRAC channel inhibition, Orai2/STIM1. The format is cell-based. The procedure: as §1
Chain of Orai2/STIM1 channels (Q96SN7 whole entry): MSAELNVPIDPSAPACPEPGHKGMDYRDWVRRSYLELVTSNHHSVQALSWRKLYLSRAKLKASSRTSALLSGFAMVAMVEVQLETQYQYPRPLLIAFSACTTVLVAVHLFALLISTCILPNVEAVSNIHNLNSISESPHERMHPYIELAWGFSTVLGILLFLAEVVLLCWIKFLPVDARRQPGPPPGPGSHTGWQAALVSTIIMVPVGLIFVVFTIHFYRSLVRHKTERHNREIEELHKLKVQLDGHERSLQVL
Chain of Orai2/STIM1 channels (Q13586 23-685 partner): as the sequence (Q13586 23-685 partner) above
For data set [2], the system named is Mouse PACs. Description: CPA-induced store-operated Ca2+ entry (calcium reuptake) in mouse PACs. It counts as cell-based. The settings on record: CPA-treated mouse PACs, excess Calcium given 15 minutes after release. The procedure:
Mouse PACs were isolated and assayed for the effect of CRAC inhibitors on calcium re-uptake into the ER. Cells were treated with cyclopiazonic acid (CPA) alone (FIG. 4A) or in combination with the CRAC inhibitor Compound I (FIG. 4B) to activate CRAC channels to release Ca^2+. At 15 minutes following Calcium release, cells were provided with an excess of Calcium and monitored for Calcium uptake into the ER.

The subject of data set [3] is Mouse PACs. Description: Rate of store-operated Calcium entry in mouse PACs, dose dependence. The settings on record: for activity at 0.7 µM: Mus musculus, 700 nM of inhibitor, read-out: rate of store-operated Calcium entry, % of control levels. The format is cell-based. More on the design: block of reuptake: dose or concentration left out as unconfirmed. The protocol:
Mouse PACs were treated with CRAC inhibitors Compound I (FIG. 5A) or GSK-7975A (FIG. 5B) and monitored for their rate of Calcium uptake. […] Compound I blocks 100% of reuptake […].

Data set [4] relates to Mouse PACs. Description: CCK-induced Ca2+ entry in mouse PACs. The format is cell-based. The note with it: CCK 10 nM, then 1.8 mM Calcium; pretreatment with inhibitor. The procedure:
Mouse PACs were monitored for their Calcium uptake upon treatment with CCK at 10 nM. Cells were treated with CCK, and then provided with 1.8 mM Calcium and Calcium reuptake was monitored. […] Compound I pretreatment reduced Calcium re-uptake to near 0% of the control. GSK-7975A reduced calcium reuptake to about 30% of the control.

For data set [5], the system named is T cells in bulk human PBMCs. As to the kind of experiment: Cytokine release from anti-CD3/anti-CD28 stimulated human PBMCs (Luminex). It counts as cell-based. The note with it: plate-bound anti-CD3/anti-CD28, 10% serum, 48 hrs. The procedure:
Compound I was tested for its inhibitory effect on a number of cytokines. Cytokines INF-gamma, IL-4, and IL-4 receptors of which are expressed on Acinar cells, cytokines IL-lbeta, IL-6, IL-10 and TNF-alpha, expressed in Acinar cells, and IL-2 and IL-7, cytokines important in T-cell function, were tested for an inhibitory effect of the CRAC inhibitor Compound I. T cells in bulk human PBMCs were stimulated with plate-bound anti-CD3/anti-CD28 in buffer +10% serum for 48 hrs. Released cytokines were measured by Luminex at Millipore.

Data set [6] has as its system caerulein-induced pathology in the mouse pancreas. Description: Mouse caerulein model of acute pancreatitis, prophylactic i.p. dosing, pancreas pathology. It counts as in vivo. The note with it: C57B6 mice. The protocol:
Mice were treated with a CRAC inhibitor or a vehicle prophylactically, and then challenged with CCK to trigger acute pancreatitis.

Data set [7] can be described thus: Compound levels in the pancreas after i.p. injection. The format is in vivo, mouse. The settings on record: as a function of dose.
In data set [8] the test system is caerulein-induced acute pancreatitis. As to the kind of experiment: Serum amylase and serum lipase in mouse caerulein model of acute pancreatitis. It counts as in vivo. The settings on record: doses up to 20 mg/kg. The protocol: Mice were either untreated (Normal), treated with CCK only (vehicle), or treated with CCK in combination with CsA or a CRAC inhibitor at the indicated dose. Serum amylase activity (FIG. 9A) and Serum Lipase activity (FIG. 9B) (IU/L) were measured.

Data set [9] relates to caerulein-induced pathology in the pancreas. As to the kind of experiment: Therapeutic/prophylactic mouse caerulein model, histopathology scores. The format is in vivo. The procedure:
Seven hourly i.p. injections of caerulein were given to induce pancreatitis, with animals sacrificed 8 hr after the 1st injection. Compound I was administered i.p. either 30 min before the 1st caerulein injection (prophylactic), or after the 3rd injection (therapeutic). CsA was administered p.o. on the same schedule as Compound I. The results are depicted in FIG. 10. Histopathology scores were measured in light of observation of Acinar cell degeneration, coagulation necrosis, and inflammation and edema measurements. Compound I produced a significant 35% reduction in caerulein-induced pathology in the pancreas when administered after the 3rd caerulein injection, consistent with efficacy in a therapeutic mode.

For data set [10], the system named is Mouse PACs. Description: TLCS-induced Ca2+ entry in mouse PACs (cytosolic calcium, F345/F380). The format is cell-based. The note with it: 500 μM TLCS; Compound I at 1 or 3 μM. The protocol: Mouse PACs were treated with 500 μM TLCS and either 0, 1μM or 3 μM of the CRAC inhibitor Compound I. Cytosolic Calcium levels (measured as F345/ F380 ratios) were measured for each treatment. TLCS releases Ca^2+ from intracellular stores (not shown), initiating SOCE. […] The results are depicted in FIG. 11.

A further data set deals with Mouse Acinar cells. Description: TLCS-induced amylase release in mouse acinar cells. The format is cell-based. The note with it: TLCS-treated mouse acinar cells, compared with EGTA. The protocol: Amylase release from PACs has an ER calcium-dependent and a CRAC/cytosolic calcium-dependent component. The calcium dependent component is blocked by introduction of the divalent cation chelating agent EGTA. Mouse Acinar cells were treated with TLCS and either vehicle, EGTA, or a CRAC inhibitor such as Compound I, GSK-7975A or Compound II and monitored for Amylase release. It is observed that CRAC inhibitors mimicked EGTA in their effect on Amylase release.

Another data set has as its system Candid-1 JUNV. It counts as cell-based, Junin virus. The note with it: VeroE6 cells; 1, 10, 25, 50 μM Compound I.
A further data set concerns murine T cells. As to the kind of experiment: Store-operated Ca2+ entry in murine T cells under Th1-, Th2-, Th17-polarizing conditions. It counts as cell-based. The settings on record: 1 μM Compound I, Th17 versus naive. The procedure:
Naive and stimulated murine T cells cultured under Th1-, Th2-, and Th17-polarizing conditions are treated with either DMSO, DMSO plus 500 μM TLCS, or DMSO plus 500 μM TLCS plus 1 μM of the CRAC inhibitor Compound I. Store-operated Ca^2+ entry (SOCE) is quantified in each treatment.

A further data set deals with Th17 cells. As to the kind of experiment: Cytokine production by Th1, Th2 and Th17 cells. It counts as cell-based, murine. The settings on record: compared with IFN-γ and IL-4 production by Th1 and Th2 cells.
The next data set relates to Human PACs. Description: TLCS-induced necrosis in human pancreatic acinar cells (propidium iodide). The format is cell-based. The settings on record: TLCS plus 10 μM GSK-7975A, TLCS alone about 45%, no TLCS about 23%. The procedure:
Human PACs were extracted and incubated with either a carrier (control) or with natural bile acid TLCS in the absence or presence of GSK-7975A. Cells were contacted with propidium iodide to assay for cell necrosis. TLCS treatment to individual cells in vitro mimics the effect of a gall stone or other blockage in pancreatic secretion in vivo.

The test system of data set [11] is Mouse acute pancreatitis models. As to the kind of experiment: Mouse acute pancreatitis models (Caerulein, TLCS, FAEE), pancreas histopathology. The format is in vivo. The settings on record: TLCS or FAEE model, doses giving tissue levels 10× or 40× the IC50, more pronounced at 40×. From the text: Mouse acute pancreatitis models were used to evaluate the effect of a CRAC inhibitor on pancreas histopathological progression. Caerulein is used to hyper-stimulate CCK receptors in the normal Calcium signaling pathway in the mouse pancreas. TLCS is used to induce acute pancreatitis through simulation of an excess of bile acid, as would be experienced in a gallstone induced acute pancreatitis. Fatty acid ethyl esters (FAEE) are used to simulate alcohol-induced acute pancreatitis. Mice were treated with the acute pancreatitis agent (Caerulin, FIG. 2A, TLCS, FIG. 2B or FAEE, FIG. 2C) alone or with the CRAC inhibitor GSK-7975A at either 10× or 40× the IC50 of the CRAC inhibitor.

Regarding `Cc1cccc(F)c1C(=O)Nc1cnc(-c2cc3c(cc2Cl)OC(F)(F)O3)cn1` [Compound I, N-(5-(6-chloro-2,2-difluorobenzo[d][1,3]dioxol-5-yl)pyrazin-2-yl)-2-fluoro-6-methylbenzamide], the “TLCS-induced necrosis (% PI uptake)” value in [1] (500 μM TLCS plus 1 μM Compound I) is “inhibits”. Moreover, the “potency on Orai1-type CRAC channels compared to GSK-7975A” value at Orai1/STIM1 channels (Compound I versus GSK-7975A) was “about 4 fold”. In addition, the IC50 against Orai1/STIM1 channels amounted to 119 nM; against Orai2/STIM1 channels, 895 nM. Further, the “reuptake of Calcium” value in the data set on Mouse PACs [2] is listed as “do not demonstrate reuptake of Calcium”. The block of reuptake with Mouse PACs [3] came to 100%. In the data set with Mouse PACs [3], the activity at 0.7 µM turned out to be 50%. For the same compound, the “Calcium re-uptake, % of the control” value in the data set with Mouse PACs [4] is reported as roughly 0%. In data set [5], the “release of multiple cytokines” value is “potently inhibits”. In addition, the “caerulein-induced pathology in the mouse pancreas” value in data set [6] is “significant and dose-dependent reductions”. In addition, in data set [7], the “Compound I levels in the pancreas” value is listed as “dose-proportional increase”. For the same compound, the “caerulein-induced serum amylase activity” value in data set [8] is “significant and dose-dependent reductions”. Moreover, the “caerulein-induced serum lipase activity” value in data set [8] is “significant and dose-dependent reductions”. Further, the results for the “reduction in caerulein-induced pathology in the pancreas” value in [9] (prophylactic: i.p. 30 min before the 1st caerulein injection) and in [9] (therapeutic: i.p. after the 3rd caerulein injection) were 26% and 35%, respectively. The “TLCS-induced Ca2+ entry” value with Mouse PACs [10] is “completely blocked”. Also, the “effect on Amylase release” value in the data set on Mouse Acinar cells is reported as “mimicked EGTA”. In the data set on Candid-1 JUNV, the “JUNV virus production (foci)” value is reported as “statistically significant, dose-dependent reduction”. In addition, in the data set with murine T cells, the “Store-operated Ca2+ entry (SOCE)” value is “blocks SOCE stronger in differentiated Th17 cells”. In addition, the “IL-17A production by Th17 cells” value in the data set on Th17 cells is given as “more severely affected”.

As for `Cc1nc2cc(C)c(-c3cnc(NC(=O)c4c(F)ccc(F)c4F)s3)cc2o1` [Compound II, N-(5-(2,5-dimethylbenzo[d]oxazol-6-yl)thiazol-2-yl)-2,3,6-trifluorobenzamide], in the data set on Mouse Acinar cells, the “effect on Amylase release” value is “mimicked EGTA”.

In the case of `O=C(Nc1ccn(Cc2ccc(O)cc2C(F)(F)F)n1)c1c(F)cccc1F` [GSK-7975A, 2,6-Difluoro-N-(1-(4-hydroxy-2-(trifluoromethyl)benzyl)-1H-pyrazol-3-yl)benzamide, reference compound], the percent necrosis entry in [1] (TLCS plus 10 μM GSK-7975A, TLCS alone about 45%, no TLCS about 10%) is on record as “about 23%”; in the data set with Human PACs, “about 30%”. Moreover, the total histopathology score entry in data set [11] is on record as “substantially reduces”. The IC50 at Orai1/STIM1 channels is 398 nM; on Orai2/STIM1 channels, 1450 nM. Further, the activity at 0.7 µM with Mouse PACs [3] was 50%. In addition, in the data set on Mouse PACs [4], the “Calcium re-uptake, % of the control” value is “about 30%”. Further, in the data set with Mouse Acinar cells, the “effect on Amylase release” value is “mimicked EGTA”.
